Reference: EPA's aquatic toxicity sets

Key:
Daphnia magna = test: 48 h LC50 (-log10 mol/L); higher = more toxic
Pimephales promelas = test: 96 h LC50 (-log10 mol/L); higher = more toxic
Tetrahymena pyriformis = test: 48 h IGC50 (-log10 mol/L); higher = more toxic

CC(C)(c1ccc(O)cc1)c1ccc(O)cc1
48 h LC50 (-log10 mol/L) (Daphnia magna): 4.3 | 96 h LC50 (-log10 mol/L) (Pimephales promelas): 4.69

CC1(C)C(C=C(Cl)Cl)C1C(=O)OC(C#N)c1ccc(F)c(Oc2ccccc2)c1 (stereo unspecified)
48 h LC50 (-log10 mol/L) (Daphnia magna): 9.13 | 96 h LC50 (-log10 mol/L) (Pimephales promelas): 8.6

CCNc1nc(Cl)nc(NC(C)C)n1
48 h LC50 (-log10 mol/L) (Daphnia magna): 3.6 | 96 h LC50 (-log10 mol/L) (Pimephales promelas): 4.16

CNC(N)=S
48 h LC50 (-log10 mol/L) (Daphnia magna): 3.98 | 48 h IGC50 (-log10 mol/L) (Tetrahymena pyriformis): 1.63

CNC(=S)NC
48 h LC50 (-log10 mol/L) (Daphnia magna): 3.83 | 48 h IGC50 (-log10 mol/L) (Tetrahymena pyriformis): 1.89

Oc1ccc(-c2ccccc2)cc1
48 h LC50 (-log10 mol/L) (Daphnia magna): 4.67 | 48 h IGC50 (-log10 mol/L) (Tetrahymena pyriformis): 4.39

C1CCCCC1
48 h LC50 (-log10 mol/L) (Daphnia magna): 4.34 | 96 h LC50 (-log10 mol/L) (Pimephales promelas): 3.3

CCCN(CCC)c1c([N+](=O)[O-])cc(C(F)(F)F)cc1[N+](=O)[O-]
48 h LC50 (-log10 mol/L) (Daphnia magna): 6.24 | 96 h LC50 (-log10 mol/L) (Pimephales promelas): 6.5

Nc1ccc(Cl)cc1Cl
48 h LC50 (-log10 mol/L) (Daphnia magna): 5.43 | 48 h IGC50 (-log10 mol/L) (Tetrahymena pyriformis): 3.56

CCOP(=O)(OCC)Oc1ccc([N+](=O)[O-])cc1
48 h LC50 (-log10 mol/L) (Daphnia magna): 9.14 | 96 h LC50 (-log10 mol/L) (Pimephales promelas): 5.98

CCOP(=S)(OCC)Oc1cc(C)nc(C(C)C)n1
48 h LC50 (-log10 mol/L) (Daphnia magna): 8.56 | 96 h LC50 (-log10 mol/L) (Pimephales promelas): 4.81

Clc1cccc(-c2ccccc2)c1
48 h LC50 (-log10 mol/L) (Daphnia magna): 5.64 | 96 h LC50 (-log10 mol/L) (Pimephales promelas): 4.38

ClCC(Cl)CCl
48 h LC50 (-log10 mol/L) (Daphnia magna): 3.65 | 96 h LC50 (-log10 mol/L) (Pimephales promelas): 3.41

CCNCC
48 h LC50 (-log10 mol/L) (Daphnia magna): 3.12 | 96 h LC50 (-log10 mol/L) (Pimephales promelas): 1.93

ClC1=C(Cl)[C@]2(Cl)[C@@H]3[C@@H]4C[C@@H]([C@H]5O[C@@H]45)[C@@H]3[C@@]1(Cl)C2(Cl)Cl
48 h LC50 (-log10 mol/L) (Daphnia magna): 6.51 | 96 h LC50 (-log10 mol/L) (Pimephales promelas): 7.21

O=P(Oc1ccccc1)(Oc1ccccc1)Oc1ccccc1
48 h LC50 (-log10 mol/L) (Daphnia magna): 5.51 | 48 h IGC50 (-log10 mol/L) (Tetrahymena pyriformis): 4.81

CCCCCCCCn1sccc1=O
48 h LC50 (-log10 mol/L) (Daphnia magna): 6.07 | 96 h LC50 (-log10 mol/L) (Pimephales promelas): 6.18

Cc1c(Cl)cccc1[N+](=O)[O-]
48 h LC50 (-log10 mol/L) (Daphnia magna): 4.61 | 48 h IGC50 (-log10 mol/L) (Tetrahymena pyriformis): 3.68

O=[N+]([O-])c1cc(Cl)cc(Cl)c1
48 h LC50 (-log10 mol/L) (Daphnia magna): 4.43 | 48 h IGC50 (-log10 mol/L) (Tetrahymena pyriformis): 4.13

c1ccsc1
48 h LC50 (-log10 mol/L) (Daphnia magna): 2.42 | 48 h IGC50 (-log10 mol/L) (Tetrahymena pyriformis): 1.56

CCOC(=O)CC
48 h LC50 (-log10 mol/L) (Daphnia magna): 2.83 | 48 h IGC50 (-log10 mol/L) (Tetrahymena pyriformis): 2.06

CCCCN=C=S
48 h LC50 (-log10 mol/L) (Daphnia magna): 5.43 | 48 h IGC50 (-log10 mol/L) (Tetrahymena pyriformis): 4.72

CC(C)c1ccccc1
48 h LC50 (-log10 mol/L) (Daphnia magna): 3.77 | 48 h IGC50 (-log10 mol/L) (Tetrahymena pyriformis): 3.69

O=C(N=C=S)c1ccccc1
48 h LC50 (-log10 mol/L) (Daphnia magna): 4.93 | 48 h IGC50 (-log10 mol/L) (Tetrahymena pyriformis): 3.1

O=C(O)c1ccccc1O
48 h LC50 (-log10 mol/L) (Daphnia magna): 3.07 | 48 h IGC50 (-log10 mol/L) (Tetrahymena pyriformis): 2.49

c1ccc2c(c1)oc1ccccc12
48 h LC50 (-log10 mol/L) (Daphnia magna): 5 | 48 h IGC50 (-log10 mol/L) (Tetrahymena pyriformis): 4.42

c1ccncc1
48 h LC50 (-log10 mol/L) (Daphnia magna): 1.81 | 48 h IGC50 (-log10 mol/L) (Tetrahymena pyriformis): 1.68

O=Cc1ccccc1
48 h LC50 (-log10 mol/L) (Daphnia magna): 3.98 | 48 h IGC50 (-log10 mol/L) (Tetrahymena pyriformis): 2.8

Cc1ccc([N+](=O)[O-])cc1C
48 h LC50 (-log10 mol/L) (Daphnia magna): 3.98 | 48 h IGC50 (-log10 mol/L) (Tetrahymena pyriformis): 3.59

O=Cc1ccc(O)c(O)c1O
48 h LC50 (-log10 mol/L) (Daphnia magna): 3.67 | 48 h IGC50 (-log10 mol/L) (Tetrahymena pyriformis): 3

Nc1cc(Cl)ccc1Cl
48 h LC50 (-log10 mol/L) (Daphnia magna): 4.74 | 48 h IGC50 (-log10 mol/L) (Tetrahymena pyriformis): 3.58

Cc1ccc(C)cc1
48 h LC50 (-log10 mol/L) (Daphnia magna): 3.52 | 48 h IGC50 (-log10 mol/L) (Tetrahymena pyriformis): 3.25

Clc1ccc(Cl)cc1
48 h LC50 (-log10 mol/L) (Daphnia magna): 4.14 | 48 h IGC50 (-log10 mol/L) (Tetrahymena pyriformis): 3.53

CCCCc1ccccc1
48 h LC50 (-log10 mol/L) (Daphnia magna): 5.55 | 48 h IGC50 (-log10 mol/L) (Tetrahymena pyriformis): 4.25

Oc1c(Cl)c(Cl)cc(Cl)c1Cl
48 h LC50 (-log10 mol/L) (Daphnia magna): 5.61 | 48 h IGC50 (-log10 mol/L) (Tetrahymena pyriformis): 5.22

Cc1ccccc1N
48 h LC50 (-log10 mol/L) (Daphnia magna): 5.31 | 48 h IGC50 (-log10 mol/L) (Tetrahymena pyriformis): 2.84

CC(=O)Nc1ccc(O)cc1
48 h LC50 (-log10 mol/L) (Daphnia magna): 4.22 | 48 h IGC50 (-log10 mol/L) (Tetrahymena pyriformis): 2.18

Cc1cc(Cl)ccc1O
48 h LC50 (-log10 mol/L) (Daphnia magna): 5.69 | 48 h IGC50 (-log10 mol/L) (Tetrahymena pyriformis): 3.7

CCC(=O)O
48 h LC50 (-log10 mol/L) (Daphnia magna): 3.17 | 48 h IGC50 (-log10 mol/L) (Tetrahymena pyriformis): 2.49

CCCCNC(N)=S
48 h LC50 (-log10 mol/L) (Daphnia magna): 3.85 | 48 h IGC50 (-log10 mol/L) (Tetrahymena pyriformis): 2.81

Cc1ccc(O)c(C)c1
48 h LC50 (-log10 mol/L) (Daphnia magna): 4.76 | 48 h IGC50 (-log10 mol/L) (Tetrahymena pyriformis): 3.14

c1ccc2[nH]ccc2c1
48 h LC50 (-log10 mol/L) (Daphnia magna): 5.07 | 48 h IGC50 (-log10 mol/L) (Tetrahymena pyriformis): 3.21

O=[N+]([O-])c1ccc(O)cc1
48 h LC50 (-log10 mol/L) (Daphnia magna): 4.02 | 48 h IGC50 (-log10 mol/L) (Tetrahymena pyriformis): 4.42

OCCCl
48 h LC50 (-log10 mol/L) (Daphnia magna): 2.58 | 48 h IGC50 (-log10 mol/L) (Tetrahymena pyriformis): 1.58

S=C=NCCc1ccccc1
48 h LC50 (-log10 mol/L) (Daphnia magna): 6.1 | 48 h IGC50 (-log10 mol/L) (Tetrahymena pyriformis): 5.54

CCNC(N)=S
48 h LC50 (-log10 mol/L) (Daphnia magna): 3.94 | 48 h IGC50 (-log10 mol/L) (Tetrahymena pyriformis): 1.87

Cc1ccc2ccccc2c1
48 h LC50 (-log10 mol/L) (Daphnia magna): 4.98 | 48 h IGC50 (-log10 mol/L) (Tetrahymena pyriformis): 4.08

CCOP(=S)(OCC)OP(=S)(OCC)OCC
48 h LC50 (-log10 mol/L) (Daphnia magna): 9.15

CC(Cc1ccc(C(C)(C)C)cc1)CN1C[C@@H](C)O[C@@H](C)C1 (stereo partly specified)
48 h LC50 (-log10 mol/L) (Daphnia magna): 5.1

C1=CCCCC1
48 h LC50 (-log10 mol/L) (Daphnia magna): 3.94

N#Cc1ncccn1
48 h LC50 (-log10 mol/L) (Daphnia magna): 3.34

O=S1c2ccccc2-c2ccccc21
48 h LC50 (-log10 mol/L) (Daphnia magna): 4

CC(C)C(=O)Nc1ccc([N+](=O)[O-])c(C(F)(F)F)c1
48 h LC50 (-log10 mol/L) (Daphnia magna): 5.3

c1ccc2c(c1)ccc1sc3ccccc3c12
48 h LC50 (-log10 mol/L) (Daphnia magna): 6.03

CCCCC(CC)C(=O)O (stereo unspecified)
48 h LC50 (-log10 mol/L) (Daphnia magna): 3.08 | 48 h IGC50 (-log10 mol/L) (Tetrahymena pyriformis): 3.08

c1ccc2c(c1)Cc1ccccc1O2
48 h LC50 (-log10 mol/L) (Daphnia magna): 3.95

CN(C)c1nc(=O)n(C2CCCCC2)c(=O)n1C
48 h LC50 (-log10 mol/L) (Daphnia magna): 3.22

S=C=Nc1ccc(N=C=S)cc1
48 h LC50 (-log10 mol/L) (Daphnia magna): 6.4 | 48 h IGC50 (-log10 mol/L) (Tetrahymena pyriformis): 6.35

Clc1cc(Cl)c(Cl)c(Cl)c1
48 h LC50 (-log10 mol/L) (Daphnia magna): 4.87

CN(C)c1ccccc1
48 h LC50 (-log10 mol/L) (Daphnia magna): 4.38 | 48 h IGC50 (-log10 mol/L) (Tetrahymena pyriformis): 3.28

CO/C=C(/C(=O)OC)c1ccccc1Oc1cc(Oc2ccccc2C#N)ncn1
48 h LC50 (-log10 mol/L) (Daphnia magna): 6.39

c1ccc2cnccc2c1
48 h LC50 (-log10 mol/L) (Daphnia magna): 3.71

CC1(C)[C@H](/C=C(\Cl)C(F)(F)F)[C@@H]1C(=O)O[C@@H](C#N)c1cccc(Oc2ccccc2)c1
48 h LC50 (-log10 mol/L) (Daphnia magna): 8.68

S=C=NCc1ccccc1
48 h LC50 (-log10 mol/L) (Daphnia magna): 6.54 | 48 h IGC50 (-log10 mol/L) (Tetrahymena pyriformis): 5.74

CN=C(NC#N)NCCSCc1nc[nH]c1C
48 h LC50 (-log10 mol/L) (Daphnia magna): 2.53

NNC(=O)c1ccncc1
48 h LC50 (-log10 mol/L) (Daphnia magna): 3.77

NC(N)=S
48 h LC50 (-log10 mol/L) (Daphnia magna): 3.88 | 48 h IGC50 (-log10 mol/L) (Tetrahymena pyriformis): 1.68

Cc1cc(C)cc(C)c1
48 h LC50 (-log10 mol/L) (Daphnia magna): 4.3

C=C1C[C@]23C[C@@]1(O)CC[C@H]2[C@@]12C=C[C@H](O)[C@@](C)(C(=O)O1)[C@H]2[C@@H]3C(=O)O
48 h LC50 (-log10 mol/L) (Daphnia magna): 4.19

Clc1cc(Cl)c(-c2ccccc2)cc1Cl
48 h LC50 (-log10 mol/L) (Daphnia magna): 5.64

O=[N+]([O-])c1cccc(Cl)c1Cl
48 h LC50 (-log10 mol/L) (Daphnia magna): 4.62 | 48 h IGC50 (-log10 mol/L) (Tetrahymena pyriformis): 4.07

C[C@]12C/C(=C/O)C(=O)C[C@@H]1CC[C@@H]1[C@@H]2CC[C@@]2(C)[C@H]1CC[C@]2(C)O
48 h LC50 (-log10 mol/L) (Daphnia magna): 4.54

COC(=O)C1=C(C)NC(C)=C(C(=O)OCC(C)C)C1c1ccccc1[N+](=O)[O-] (stereo unspecified)
48 h LC50 (-log10 mol/L) (Daphnia magna): 4.07

CCOC(C)=O
48 h LC50 (-log10 mol/L) (Daphnia magna): 2.09 | 48 h IGC50 (-log10 mol/L) (Tetrahymena pyriformis): 1.7

CCCCC
48 h LC50 (-log10 mol/L) (Daphnia magna): 3.87

c1ccc2sc(SSc3nc4ccccc4s3)nc2c1
48 h LC50 (-log10 mol/L) (Daphnia magna): 3.62

Oc1cc(Cl)c(Cl)c(Cl)c1
48 h LC50 (-log10 mol/L) (Daphnia magna): 5.46
